Results on two compounds are retold here after US7321027B2, “Small technetium-99m and rhenium labeled agents and methods for imaging tumors” (President and Fellows of Harvard College, priority 2000, dated 2008).

A short description of data set [1]: Determination of lipophilicity and pKa values by HPLC. As to conditions: HPLC method. The class given is physicochemical. The procedure:
The physicochemical parameters of the rhenium complexes, i.e. lipophilicity log P, log D(pH 7.4), and pKa (Table 2) were determined using HPLC methods (Braumann, T.; Grimme, L. H. Determination of Hydrophobic Parameters for Pyridazinone Herbicides by Liquid-Liquid Partition and Reversed-Phase High-Performance Liquid Chromatography. J. Chromatogr. 1981, 206, 7-15; Stytli, C.; Theobald, A. E. Determination of Ionization Constants of Radiopharmaceuticals in Mixed Solvents by HPLC. Appl. Radiat. Isot., 1987, 38, 701-708; Johannsen, B.; Scheunemann, M.; Spies, H.; Brust, P.; Wober, J.; Syhre, R.; Pietzsch, H.-J. Technetium(V) and Rhenium(V) Complexes for 5-HT2A Serotonin Receptor Binding: Structure-Affinity Considerations. Nucl. Med. Biol., 1996, 23, 429-438; and Johannsen, B.; Berger, R.; Brust, P.; Pietzsch, H.-J; Scheunemann, M.; Seifert, S.; Spies, H.; Syhre, R. Structural Modification of Receptor-Binding Technetium-99m Complexes in Order to Improve Brain Uptake. Eur. J. Nucl. Med. 1997, 24, 316-319). […] Since log D(pH 7.4) is a composite measure of log P and pKa, the log D(PH 7.4) of Re-Compound B (1.9) is also higher than that of Re-Compound A (1.1). […] With pKa values >9 for complexes Re-Compound C and Re-Compound D, the resulting low log D(PH 7.4) values of −0.5 (Re-Compound C) and 0.7 (Re-Compound D) are not surprising, since the complexes would exist in a protonated form at pH 7.4.
Determination of Lipophilicity and pKa Values. The lipophilicity and pKa values of all complexes were determined using HPLC methods described previously (Stylli, C.; Theobald, A. E. Determination of Ionization Constants of 4 Radiopharmaceuticals in Mixed Solvents by HPLC. Appl. Radiat. Isot., 1987, 38, 701-708; Johannsen, B.; Scheunemann, M.; Spies, H.; Brust, P.; Wober, J.; Syhre, R.; Pietzsch, H.-J. Technetium(V) and Rhenium(V) Complexes for 5-HT2A Serotonin Receptor Binding: Structure-Affinity Considerations. Nucl. Med. Biol., 1996, 23, 429-438; and Johannsen, B.; Berger, R.; Brust, P.; Pietzsch, H.-J.; Scheunemann, M.; Seifert, S.; Spies, H.; Syhre, R. Structural Modification of Receptor-Binding Technetium-99m Complexes in Order to Improve Brain Uptake. Eur. J. Nucl. Med. 1997, 24, 316-319). […] The mobile phase was acetonitrile:phosphate buffer (0.01 M), 3:1, v/v, with the aqueous buffer adjusted to the desired pH between 3 and 11. The capacity factor (k′) was calculated for each determination (Braumann, T.; Grimme, L. H. Determination of Hydrophobic Parameters for Pyridazinone Herbicides by Liquid-Liquid Partition and Reversed-Phase High-Performance Liquid Chromatography. J. Chromatogr. 1981, 206, 7-15; El Tayer, N.; van der Waterbeemd, H.; Testa, B. Lipophilicity Measurements of Protonated Basic Compounds by Reversed-Phase High-Performance Liquid Chromatography. II. Procedure for the Determination of a Lipophilic Index Measured by Reversed-Phase High Performance Liquid Chromatography. J. Chromatogr. 1985, 320, 305-312; and Minick, D. J.; Frenz, J. H.; Patrick, M. A.; Brent, D. A. A Comprehensive Method for Determining Hydrophobicity Constants by Reversed-Phase High-Performance Liquid Chromatography. J. Med. Chem., 1988, 31, 1923-1933) and the partition coefficient at a given pH (D or log D) were calculated from the equation: log D=a log k′+b where the parameters a and b are predetermined using standard amines. The fitted points of inflection from the sigmoidal DHPLC/pH profiles permit calculation of the pKHPLC(Stylli, C.; Theobald, A. E. Determination of Ionization Constants of Radiopharmaceuticals in Mixed Solvents by HPLC. Appl. Radiat. Isot., 1987, 38, 701-708). The aqueous ionization constants pKa were calculated from the pKHPLC values after correction with a predetermined correction factor obtained using standard amine compounds. Log P values of the neutral complexes were estimated from the respective upper plateau of the sigmoidal log D/pH curve in the alkaline range.

Data set [2] has as its system B16/F0 murine melanoma cells. As to the kind of experiment: In-vitro tumor-cell uptake, melanoma cells. The class given is cell-based. As to conditions: 37° C., B16/F0 cell line. Summed up: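 5×10^6 cells in S-MEM were incubated with 1–2 μCi of ^99mTc-complex with intermittent agitation; B16/F0 uptake was run at both 37 °C and 4 °C. At set times, samples were spun through cold FBS and pellet and supernatant were γ-counted. % uptake = cpm(pellet)/[cpm(pellet)+cpm(supernatant)]×100.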

In general, pKa refers to the negative logarithm of the acid dissociation constant. Turning to `CCN(CC)CCN1CC[S][99Tc]2(=[O])[S]CC[N]2C(=O)C1` (stereo not shown) [Tc-(Compound A)], in data set [1], the pKa amounted to 7.7 and the “log D(pH 7.4)” value is “≈ 1”. Further, the maximal cell uptake in data set [2] is reported as 43%.
One may read the log P as a log measure of how a compound divides between an organic and an aqueous phase. A lower log P goes with a more hydrophilic compound. Turning to `CCCCN(CCCC)CCN1CC[S][99Tc]2(=[O])[S]CC[N]2C(=O)C1` (stereo not shown) [Tc-(Compound B)], in data set [1], the “log P” value was determined as 3.3, the pKa turned out to be 7.7 and the “log D(pH 7.4)” value came to 1.9. The maximal cell uptake in data set [2] is 12%.
